Literature values in patent US20030116748A1, “Environmentally friendly compositions having anti-icing, deicing or graffiti prevention properties” (priority 1995, published 2003).
Like-named read-outs stand apart in the source and are kept apart here. Values belong to the compound of their own block, whether it stands above or below them.

Legend:
[1] = individual component at full concentration
[2] = for OSHA PEL: 8 hour time-weighted average

Permissible concentration limits, Air (Federal): 156 (Federal) mg/m^3
Compound: CC(O)CO (centres unmarked) [Propylene Glycol, 1,2-propanediol]

Solubility in Water [1]: miscible | OSHA PEL [2]: 400 ppm | OSHA PEL ([2]; value in brackets): 980 mg/m^3 | NIOSH ([2]; 10 hour time-weighted average): 400 ppm | NIOSH (STEL) ([2]; Short Term Exposure Limit): 500 ppm | ACGIH TLV ([2]; time-weighted average): 400 ppm
Compound: CC(C)O [Example 2-Propanol, 2-Propanol]

Solubility in Water [1]: miscible
Compound: OCC(O)CO [Glycerin, 1,2,3-Propanetriol]

Compound: OCCO [Ethylene Glycol]
Permissible concentration limits, Water (Arizona, Massachusetts, Maine): 5.50 (Arizona, mg/L | Permissible concentration limits, Water (Connecticut): 0.10 (Connecticut) mg/L | Permissible concentration limits, Air (Federal): 125 (Federal) mg/m^3 | Permissible concentration limits, Air (Massachusetts): 0.17 mg/m^3 | Permissible concentration limits, Air (Nevada): 2.98 (Nevada) mg/m^3 | Permissible concentration limits, Water (New Jersey): 0.29 (New Jersey) mg/L | Permissible concentration limits, Air (North Dakota): 1.25 (North mg/m^3 | Permissible concentration limits, Water (U.S. EPA): 0.14 (U.S. EPA) mg/L | Permissible concentration limits, Air (Virginia): 1.00 (Virginia) mg/m^3
